Molecular target: human SIRT1 (Homo sapiens (Human), UniProt Q96EB6)
Assay: SIRT1 in vitro deacetylation assay (Fluor-de-Lys, acetylated AMC-labeled p53 peptide)
Type: biochemical
Settings: 50 μM substrate peptide, 500 μM NAD+, 30° C., 2 h; for Emax: SIRT1 activation, read-out: Max (%), percentage of maximum activation achieved; for EC1.5 (concentration raising enzyme activity by 50%): concentration required to increase the enzyme activity by 50%, read-out: EC1.5 (SIRT1 activators); for IC50: concentration reducing enzyme activity by 50%, read-out: IC50 (SIRT1 inhibitors)
Experimental: The inhibitory activity is measured as the concentration of compound required to reduce the enzyme activity by 50% (IC50).
Activation in this assay is measured both as the concentration of compound required to increase the enzyme activity by 50% (EC1.5) as well as by the percentage of maximum activation achieved (Max %) (see, FIG. 1).
The reactions were carried out in a 96-well microplate for fluorometry in a 50 μl reaction volume. After the deacetylation reaction, Fluor-de-Lys-Developer II (BioMol. Cat. #KI-176) was added to each well to digest the deacetylated substrate, thus producing the fluorescent signal. The reaction was allowed to develop for 45 minutes at 30° C. with 5% CO2; then the fluorescent signal was measured with an excitation wavelength at 360 nm and an emission wavelength at 460 nm in a microplate-reading fluorometer (GeminiXS; Molecular Devices, Sunnyvale, Calif.). […] All experiments were performed in triplicate.

human SIRT1, sequence (Q96EB6 whole entry): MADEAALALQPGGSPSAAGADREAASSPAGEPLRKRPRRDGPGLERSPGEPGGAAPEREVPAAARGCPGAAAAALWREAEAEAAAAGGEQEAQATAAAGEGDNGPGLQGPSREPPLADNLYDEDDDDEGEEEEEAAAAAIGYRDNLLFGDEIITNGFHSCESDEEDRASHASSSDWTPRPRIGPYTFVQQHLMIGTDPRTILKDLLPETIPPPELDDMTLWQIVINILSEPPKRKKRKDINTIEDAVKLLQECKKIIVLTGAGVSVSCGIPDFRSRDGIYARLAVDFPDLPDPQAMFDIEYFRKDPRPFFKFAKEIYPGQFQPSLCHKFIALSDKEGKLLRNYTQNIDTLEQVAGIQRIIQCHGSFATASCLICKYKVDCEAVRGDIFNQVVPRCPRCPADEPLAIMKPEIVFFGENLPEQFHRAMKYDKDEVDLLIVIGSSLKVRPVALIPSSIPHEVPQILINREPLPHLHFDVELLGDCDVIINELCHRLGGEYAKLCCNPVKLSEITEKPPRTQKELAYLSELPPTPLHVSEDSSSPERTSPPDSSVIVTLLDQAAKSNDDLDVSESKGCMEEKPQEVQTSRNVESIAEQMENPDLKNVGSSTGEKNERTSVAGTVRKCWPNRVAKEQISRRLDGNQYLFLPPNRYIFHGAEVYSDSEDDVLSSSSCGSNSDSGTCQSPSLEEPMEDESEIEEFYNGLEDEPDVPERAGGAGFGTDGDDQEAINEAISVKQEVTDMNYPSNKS

| SMILES | Emax [%] | EC1.5 (concentration raising enzyme activity by 50%) [nM] | IC50 [µM] |
| --- | --- | --- | --- |
| Oc1ccc(-c2coc3cc(O)cc(O)c23)cc1 [Example 15, 3-(4-hydroxyphenyl)-1-benzofuran-4,6-diol] | – | – | 22.8 |
| Oc1cc(O)c2c(-c3cc(F)cc(F)c3)coc2c1 [Example 16, 3-(3,5-difluorophenyl)-1-benzofuran-4,6-diol] | – | – | 274 |
| Oc1cc(O)c2c(-c3ccc(F)cc3)coc2c1 [Example 19, 3-(4-fluorophenyl)benzofuran-4,6-diol] | – | – | 192 |
| Oc1cc(O)c2c(-c3cc(F)cc(F)c3)c(Br)oc2c1 [Example 20, 2-bromo-3-(3,5-difluorophenyl)benzofuran-4,6-diol] | – | – | 76.3 |
| Oc1ccc(C=Cc2cc(O)cc(O)c2)cc1 [Resveratrol, resveratrol, reference compound] | 475 | – | – |

Now from value to compound:

| Emax [%] | EC1.5 (concentration raising enzyme activity by 50%) [nM] | IC50 [µM] | SMILES |
| --- | --- | --- | --- |
| 451 | 11.5 | – | Oc1cc(O)cc(-c2cc3ccc(O)cc3o2)c1 [5-(6-hydroxy-1-benzofuran-2-yl)benzene-1,3-diol, reference compound] |
| 407 | 1.32 | – | Oc1cc(O)cc(-c2cc3c(O)cc(O)cc3o2)c1 [Example 8, 2-(3,5-dihydroxyphenyl)-1-benzofuran-4,6-diol] |
| 444 | 3.55 | – | Oc1ccc(-c2cc3c(O)cc(O)cc3o2)cc1 [Example 9, 2-(4-hydroxyphenyl)-1-benzofuran-4,6-diol] |
| 279 | 13.5 | – | Oc1cc(O)c2cc(-c3ccc(F)cc3)oc2c1 [Example 10, 2-(4-fluorophenyl)-1-benzofuran-4,6-diol] |
| – | – | 1.84 | Oc1cc(O)c2cc(-c3cc(O)c(O)c(O)c3)oc2c1 [Example 11, 5-(4,6-dihydroxy-1-benzofuran-2-yl)benzene-1,2,3-triol] |
| 130 | – | – | COc1ccc(-c2cc3c(O)cc(O)cc3o2)c(OC)n1 [Example 12, 2-(2,6-dimethoxypyridin-3-yl)benzofuran-4,6-diol] |
| – | – | 36.7 | Oc1cc(O)c2cc(-c3cc(F)cc(F)c3)oc2c1 [Example 13, 2-(3,5-difluorophenyl)benzofuran-4,6-diol] |

From US8835659B2, “Polysubstituted benzofurans and medicinal applications thereof” (Ikerchem, S.L., priority 2010, dated 2014)
